From ChEMBL document CHEMBL1131563, “Effects of alpha- and beta-galactosylated C2-ceramides on the immune system” (J Med Chem, 1998)

Tests used:
[1] = organism: Mus musculus; experiment: Concentration at which compound suppressed the MLR response (mixed leukocyte reaction) in murine spleen cells; range = 80 ng/mL to 2 ug/mL; assay type: functional, cell-based
[2] = organism: Mus musculus; experiment: Concentration at which compound induced concentration-dependent stimulation of the MLR responses in murine spleen cells; range = 80 ng/mL to 2 ug/mL; assay type: functional, cell-based

Row | Structure (SMILES) | Concentration [1] [µg/mL] | Concentration [2] [µg/mL]
1 | CCCCCCCCCCCCC/C=C/[C@@H](O)[C@H](CO)NC(C)=O | 2 | 
2 | CCCCCCCCCCCCC/C=C/[C@@H](O)[C@H](CO[C@@H]1O[C@@H](CO)[C@H](O)[C@H](O)[C@@H]1O)NC(C)=O |  | 2
